Test results taken from PubChem BioAssay (NCI).
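Interpolation was linear, between the two tested concentrations surrounding the appropriate level; five concentrations were tested over 48 hours in 96-well plates. GI50 marks 50% less growth. Definition used: TGI = concentration required for complete inhibition of growth.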

How the values were obtained:
Test in all cases: NCI tumour cell line growth inhibition, 48 h
[1] = tested on: 786-0 renal
[2] = tested on: A498 renal
[3] = tested on: A549 NSCLC
[4] = tested on: ACHN renal
[5] = tested on: BT-549 breast
[6] = tested on: CAKI-1 renal
[7] = tested on: CCRF-CEM leukemia
[8] = tested on: COLO 205 colon
[9] = tested on: DU-145 prostate
[10] = tested on: HCC-2998 colon
[11] = tested on: HCT-116 colon
[12] = tested on: HCT-15 colon
[13] = tested on: HL-60(TB) leukemia
[14] = tested on: HOP-62 NSCLC
[15] = tested on: HOP-92 NSCLC
[16] = tested on: HS 578T breast
[17] = tested on: HT29 colon
[18] = tested on: IGROV1 ovarian
[19] = tested on: K-562 leukemia
[20] = tested on: KM12 colon
[21] = tested on: LOX IMVI melanoma
[22] = tested on: M14 melanoma
[23] = tested on: MALME-3M melanoma
[24] = tested on: MCF7 breast
[25] = tested on: MDA-MB-231 breast
[26] = tested on: MDA-MB-435
[27] = tested on: MOLT-4 leukemia
[28] = tested on: NCI-H226 lung
[29] = tested on: NCI-H23 lung
[30] = tested on: NCI-H460 lung
[31] = tested on: NCI-H522 lung
[32] = tested on: NCI/ADR-RES ovarian
[33] = tested on: OVCAR-3 ovarian
[34] = tested on: OVCAR-4 ovarian
[35] = tested on: OVCAR-5 ovarian
[36] = tested on: OVCAR-8 ovarian
[37] = tested on: PC-3 prostate
[38] = tested on: RPMI-8226 leukemia
[39] = tested on: RXF 393 renal
[40] = tested on: SF-268 CNS
[41] = tested on: SF-539 CNS
[42] = tested on: SK-MEL-2 melanoma
[43] = tested on: SK-MEL-28 melanoma
[44] = tested on: SK-MEL-5 melanoma
[45] = tested on: SK-OV-3 ovarian
[46] = tested on: SN12C renal
[47] = tested on: SNB-19 CNS
[48] = tested on: SNB-75 CNS
[49] = tested on: SR leukemia
[50] = tested on: SW-620 colon
[51] = tested on: T-47D breast
[52] = tested on: TK-10 renal
[53] = tested on: UACC-62 melanoma
[54] = tested on: UO-31 renal

Question: With `CCOC(=O)C1=C(N)CCC1C` (stereo not drawn) as the molecule, how does the GI50 [1] read?
Answer: > 100 µM

Question: What about the TGI [1] of the same molecule?
Answer: > 100 µM

Question: And the GI50 [2]?
Answer: > 100 µM

Question: And the TGI [2]?
Answer: > 100 µM

Question: What about the GI50 [3] of the same molecule?
Answer: > 100 µM

Question: And the TGI [3]?
Answer: > 100 µM

Question: And the GI50 [4]?
Answer: > 100 µM

Question: And the TGI [4]?
Answer: > 100 µM

Question: What about the GI50 [5] of the same molecule?
Answer: > 100 µM

Question: And the TGI [5]?
Answer: > 100 µM

Question: What about the GI50 [6] of the same molecule?
Answer: > 100 µM

Question: And the TGI [6]?
Answer: > 100 µM

Question: And the GI50 [7]?
Answer: > 100 µM

Question: And the TGI [7]?
Answer: > 100 µM

Question: And the GI50 [8]?
Answer: > 100 µM

Question: What about the TGI [8] of the same molecule?
Answer: > 100 µM

Question: What about the GI50 [9] of the same molecule?
Answer: > 100 µM

Question: What about the TGI [9] of the same molecule?
Answer: > 100 µM

Question: What about the GI50 [10] of the same molecule?
Answer: > 100 µM

Question: What about the TGI [10] of the same molecule?
Answer: > 100 µM

Question: And the GI50 [11]?
Answer: > 100 µM

Question: And the TGI [11]?
Answer: > 100 µM

Question: And the GI50 [12]?
Answer: > 100 µM

Question: And the TGI [12]?
Answer: > 100 µM

Question: And the GI50 [13]?
Answer: 69.8 µM

Question: And the TGI [13]?
Answer: > 100 µM

Question: And the GI50 [14]?
Answer: > 100 µM

Question: And the TGI [14]?
Answer: > 100 µM

Question: And the GI50 [15]?
Answer: 41.2 µM

Question: And the TGI [15]?
Answer: > 100 µM

Question: What about the GI50 [16] of the same molecule?
Answer: > 100 µM

Question: And the TGI [16]?
Answer: > 100 µM

Question: And the GI50 [17]?
Answer: > 100 µM

Question: What about the TGI [17] of the same molecule?
Answer: > 100 µM

Question: And the GI50 [18]?
Answer: > 100 µM

Question: What about the TGI [18] of the same molecule?
Answer: > 100 µM

Question: And the GI50 [19]?
Answer: > 100 µM

Question: And the TGI [19]?
Answer: > 100 µM

Question: What about the GI50 [20] of the same molecule?
Answer: > 100 µM

Question: What about the TGI [20] of the same molecule?
Answer: > 100 µM

Question: What about the GI50 [21] of the same molecule?
Answer: > 100 µM

Question: What about the TGI [21] of the same molecule?
Answer: > 100 µM

Question: And the GI50 [22]?
Answer: > 100 µM

Question: What about the TGI [22] of the same molecule?
Answer: > 100 µM

Question: What about the GI50 [23] of the same molecule?
Answer: > 100 µM

Question: What about the TGI [23] of the same molecule?
Answer: > 100 µM

Question: And the GI50 [24]?
Answer: > 100 µM

Question: What about the TGI [24] of the same molecule?
Answer: > 100 µM

Question: What about the GI50 [25] of the same molecule?
Answer: > 100 µM

Question: And the TGI [25]?
Answer: > 100 µM

Question: What about the GI50 [26] of the same molecule?
Answer: > 100 µM

Question: What about the TGI [26] of the same molecule?
Answer: > 100 µM

Question: And the GI50 [27]?
Answer: 22.7 µM

Question: And the TGI [27]?
Answer: 65.5 µM

Question: And the GI50 [28]?
Answer: > 100 µM

Question: What about the TGI [28] of the same molecule?
Answer: > 100 µM

Question: What about the GI50 [29] of the same molecule?
Answer: > 100 µM

Question: And the TGI [29]?
Answer: > 100 µM

Question: And the GI50 [30]?
Answer: > 100 µM

Question: And the TGI [30]?
Answer: > 100 µM

Question: What about the GI50 [31] of the same molecule?
Answer: > 100 µM

Question: And the TGI [31]?
Answer: > 100 µM

Question: What about the GI50 [32] of the same molecule?
Answer: > 100 µM

Question: And the TGI [32]?
Answer: > 100 µM

Question: What about the GI50 [33] of the same molecule?
Answer: > 100 µM

Question: What about the TGI [33] of the same molecule?
Answer: > 100 µM

Question: What about the GI50 [34] of the same molecule?
Answer: > 100 µM

Question: And the TGI [34]?
Answer: > 100 µM

Question: And the GI50 [35]?
Answer: > 100 µM

Question: And the TGI [35]?
Answer: > 100 µM

Question: What about the GI50 [36] of the same molecule?
Answer: > 100 µM

Question: What about the TGI [36] of the same molecule?
Answer: > 100 µM

Question: What about the GI50 [37] of the same molecule?
Answer: > 100 µM

Question: What about the TGI [37] of the same molecule?
Answer: > 100 µM

Question: What about the GI50 [38] of the same molecule?
Answer: > 100 µM

Question: What about the TGI [38] of the same molecule?
Answer: > 100 µM

Question: And the GI50 [39]?
Answer: > 100 µM

Question: What about the TGI [39] of the same molecule?
Answer: > 100 µM

Question: What about the GI50 [40] of the same molecule?
Answer: > 100 µM

Question: And the TGI [40]?
Answer: > 100 µM

Question: What about the GI50 [41] of the same molecule?
Answer: > 100 µM

Question: And the TGI [41]?
Answer: > 100 µM

Question: What about the GI50 [42] of the same molecule?
Answer: > 100 µM

Question: What about the TGI [42] of the same molecule?
Answer: > 100 µM

Question: What about the GI50 [43] of the same molecule?
Answer: > 100 µM

Question: And the TGI [43]?
Answer: > 100 µM

Question: And the GI50 [44]?
Answer: > 100 µM

Question: What about the TGI [44] of the same molecule?
Answer: > 100 µM

Question: And the GI50 [45]?
Answer: > 100 µM

Question: And the TGI [45]?
Answer: > 100 µM

Question: What about the GI50 [46] of the same molecule?
Answer: > 100 µM

Question: What about the TGI [46] of the same molecule?
Answer: > 100 µM

Question: What about the GI50 [47] of the same molecule?
Answer: > 100 µM

Question: And the TGI [47]?
Answer: > 100 µM

Question: And the GI50 [48]?
Answer: > 100 µM

Question: And the TGI [48]?
Answer: > 100 µM

Question: And the GI50 [49]?
Answer: 8.35 µM

Question: And the TGI [49]?
Answer: > 100 µM

Question: What about the GI50 [50] of the same molecule?
Answer: > 100 µM

Question: What about the TGI [50] of the same molecule?
Answer: > 100 µM

Question: What about the GI50 [51] of the same molecule?
Answer: > 100 µM

Question: And the TGI [51]?
Answer: > 100 µM

Question: And the GI50 [52]?
Answer: > 100 µM

Question: And the TGI [52]?
Answer: > 100 µM

Question: What about the GI50 [53] of the same molecule?
Answer: > 100 µM

Question: And the TGI [53]?
Answer: > 100 µM

Question: What about the GI50 [54] of the same molecule?
Answer: > 100 µM

Question: What about the TGI [54] of the same molecule?
Answer: > 100 µM
